Results as given in ChEMBL document CHEMBL2203261, “Selective thyromimetics using receptor and tissue selectivity approaches: prospects for dyslipidemia” (J Med Chem, 2012).

What was measured:
[1] = target: T1, Thyroid hormone receptor beta (Homo sapiens, UniProt P10828); test: Binding affinity to TRbeta1
T1 sequence (P10828 whole entry): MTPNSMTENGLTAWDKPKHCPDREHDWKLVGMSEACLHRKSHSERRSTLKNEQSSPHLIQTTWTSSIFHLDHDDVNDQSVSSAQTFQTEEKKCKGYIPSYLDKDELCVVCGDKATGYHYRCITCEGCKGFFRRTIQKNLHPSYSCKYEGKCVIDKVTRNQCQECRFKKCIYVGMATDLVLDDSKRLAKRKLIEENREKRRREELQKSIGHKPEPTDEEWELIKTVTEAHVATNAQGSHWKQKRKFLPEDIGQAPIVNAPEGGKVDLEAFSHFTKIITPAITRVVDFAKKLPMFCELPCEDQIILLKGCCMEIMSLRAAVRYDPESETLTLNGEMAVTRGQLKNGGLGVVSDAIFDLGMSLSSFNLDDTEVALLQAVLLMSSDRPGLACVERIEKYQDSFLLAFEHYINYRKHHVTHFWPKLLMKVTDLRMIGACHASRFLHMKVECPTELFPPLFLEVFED

[2] = target: T2, Thyroid hormone receptor alpha (Homo sapiens, UniProt P10827); test: Binding affinity to TRalpha1
T2 sequence (P10827 whole entry): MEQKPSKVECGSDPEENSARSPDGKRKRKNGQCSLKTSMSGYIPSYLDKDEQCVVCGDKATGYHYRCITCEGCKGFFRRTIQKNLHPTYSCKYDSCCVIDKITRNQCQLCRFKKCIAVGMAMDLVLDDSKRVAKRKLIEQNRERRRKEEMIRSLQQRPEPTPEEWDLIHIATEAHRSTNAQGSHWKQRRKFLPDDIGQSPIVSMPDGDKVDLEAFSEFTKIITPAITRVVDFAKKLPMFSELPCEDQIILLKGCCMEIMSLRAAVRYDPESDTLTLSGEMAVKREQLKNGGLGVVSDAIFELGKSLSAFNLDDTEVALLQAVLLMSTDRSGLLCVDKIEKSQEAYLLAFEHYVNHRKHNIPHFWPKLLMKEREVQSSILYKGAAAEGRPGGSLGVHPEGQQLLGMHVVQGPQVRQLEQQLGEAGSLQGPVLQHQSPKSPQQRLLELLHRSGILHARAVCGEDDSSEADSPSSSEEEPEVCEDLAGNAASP

Rattus norvegicus = test: Antidyslipidemic activity in po dosed cholesterol fed rat assessed as reduction in cholesterol level administered QD; format: functional
Homo sapiens [3] = test: Antidyslipidemic activity in human assessed as reduction in LDL cholesterol at 100 ug administered QD relative to control; format: functional; parameters: scale not given: the % may be the effect or the level left
Homo sapiens [4] = test: Antidyslipidemic activity in obese, hypercholesterolemic patient assessed as reduction in LDL cholesterol at 100 ug administered QD for 2 weeks relative to control; format: functional; parameters: scale not given: the % may be the effect or the level left

Row | SMILES | EC50 [1] [nM] | EC50 [2] [nM] | further results
1 | Cc1cc(OCP2(=O)OCC[C@@H](c3cccc(Cl)c3)O2)cc(C)c1Cc1ccc(O)c(C(C)C)c1 (stereo partly drawn) [MB07811] |  |  | Ki [1]: 600 nM; ED50 (Rattus norvegicus): 0.4 mg/kg
2 | Cc1cc(OCC(=O)O)cc(C)c1Cc1ccc(O)c(C(C)C)c1 [SOBETIROME] |  |  | Activity (Homo sapiens [3]): 41%
3 | CC(C)c1cc(Oc2c(Br)cc(NC(=O)CC(=O)O)cc2Br)ccc1O [EPROTIROME] |  |  | Activity (Homo sapiens [4]): 40%

Continued, in another order:

Row | EC50 [1] [nM] | EC50 [2] [nM] | SMILES | further results
4 | 2.9 | 152 | O=C(O)Cc1cc(Cl)c(Oc2ccc(O)c(-c3ccccc3)c2)c(Cl)c1 | 
5 | 0.47 | 18 | O=C(O)Cc1cc(Cl)c(Oc2ccc(O)c(C(=O)NCC(c3ccccc3)c3ccccc3)c2)c(Cl)c1 | 
